Reference: the Kinase Knowledgebase extract (Sharma et al. 2016)

Target: PIK3CG (human) (UniProt P48736)
Experiment: Inhibition of PIK3CG Kinase Activity

Chain of PIK3CG (human) (P48736 whole entry, looked up): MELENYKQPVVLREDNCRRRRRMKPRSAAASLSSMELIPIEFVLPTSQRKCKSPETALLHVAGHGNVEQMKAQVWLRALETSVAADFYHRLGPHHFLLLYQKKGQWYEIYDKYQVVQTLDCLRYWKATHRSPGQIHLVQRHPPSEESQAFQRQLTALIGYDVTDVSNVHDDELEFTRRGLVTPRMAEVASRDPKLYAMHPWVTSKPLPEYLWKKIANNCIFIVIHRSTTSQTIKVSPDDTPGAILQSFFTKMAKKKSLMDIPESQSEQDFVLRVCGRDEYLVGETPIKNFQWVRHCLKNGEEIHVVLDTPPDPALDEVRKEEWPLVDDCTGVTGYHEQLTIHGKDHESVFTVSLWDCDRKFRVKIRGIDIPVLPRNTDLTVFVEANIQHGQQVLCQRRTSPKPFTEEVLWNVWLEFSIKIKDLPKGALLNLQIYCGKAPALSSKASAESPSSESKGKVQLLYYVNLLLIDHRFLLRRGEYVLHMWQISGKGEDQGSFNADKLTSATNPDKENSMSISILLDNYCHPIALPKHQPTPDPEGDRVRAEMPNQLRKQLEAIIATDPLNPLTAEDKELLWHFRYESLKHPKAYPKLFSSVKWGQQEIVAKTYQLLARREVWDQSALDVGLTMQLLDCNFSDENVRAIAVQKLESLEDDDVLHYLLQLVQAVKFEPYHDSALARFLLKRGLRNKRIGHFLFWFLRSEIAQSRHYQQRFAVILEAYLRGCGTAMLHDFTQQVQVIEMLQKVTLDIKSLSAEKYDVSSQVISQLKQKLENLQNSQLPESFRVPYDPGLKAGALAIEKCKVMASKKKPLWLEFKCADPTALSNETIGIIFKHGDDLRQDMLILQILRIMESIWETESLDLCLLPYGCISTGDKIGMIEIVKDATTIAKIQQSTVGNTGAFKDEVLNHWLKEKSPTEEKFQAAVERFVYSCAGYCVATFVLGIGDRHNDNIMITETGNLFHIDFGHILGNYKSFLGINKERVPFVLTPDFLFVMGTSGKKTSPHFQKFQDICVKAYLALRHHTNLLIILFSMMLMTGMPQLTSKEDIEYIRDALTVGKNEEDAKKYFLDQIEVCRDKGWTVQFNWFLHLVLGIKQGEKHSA

| Ki | Compound |
| --- | --- |
| < 100 nM | CCNC(=O)c1cc(-c2cc(C)c3c(n2)C(C)N(c2cnn(CC(F)(F)F)c2)C3=O)cnc1OC (stereo unspecified) |
| < 100 nM | COc1cc(-c2ccc3c(n2)CN(c2cnn(C(F)(F)C(N)=O)c2)C3=O)cnc1OC |
| < 100 nM | COc1cc(-c2ccc3c(n2)CN(c2cnn(Cc4ccccn4)c2)C3=O)cnc1OC |
| < 100 nM | Cc1cc(-c2cncc(C(=O)O)c2)nc2c1C(=O)N(c1ccn([C@H]3CCOC3)n1)C2 |
| < 100 nM | COc1cc(-c2cc(C)c3c(n2)CN(c2cncc(CO)c2)C3=O)cnc1OC |
| < 100 nM | Cc1cc(-c2cncc(C(=O)NCC(F)F)c2)nc2c1C(=O)N(c1cnn(CC(F)(F)F)c1)C2(C)C |
| < 100 nM | COc1cc(OC)c(-c2cc(C)c3c(n2)C(C)N(c2cnn(CC(F)(F)F)c2)C3=O)cn1 (stereo unspecified) |
| < 100 nM | COc1ccc(-c2cc(C)c3c(n2)CN(c2cnn(CC#N)c2)C3=O)c(OC)n1 |
| < 100 nM | CCC#CCn1cc(N2Cc3cc(-c4cnc(OC)c(OC)c4)ccc3C2=O)cn1 |
| < 100 nM | CCOc1cncc(-c2cc(C)c3c(n2)C(OC)N(c2cnn(CC(F)(F)F)c2)C3=O)c1 (stereo unspecified) |
| < 100 nM | COc1cc(-c2ccc3c(n2)CN(c2cnn(CC(O)CF)c2)C3=O)cnc1OC (stereo unspecified) |
| < 100 nM | COc1ncc(-c2cc(C)c3c(c2)C(C)N(c2cnn(CC(F)(F)F)c2)C3=O)nc1OC (stereo unspecified) |
| 100 to 490 nM | N#CCn1cc(N2Cc3cc(-c4cnc5ccccc5c4)ccc3C2=O)cn1 |
| 100 to 490 nM | COc1cc(-c2ccc3c(n2)CN(c2ccc(N4CCNCC4)nc2)C3=O)cnc1OC |
| < 100 nM | COc1cc(-c2ccc3c(n2)[C@H](C)N(c2cnn(CC(C)(C)O)c2)C3=O)cnc1OC |
| < 100 nM | COc1cc(OC)c(-c2cc(C)c3c(n2)CN(c2cnn(CC(F)(F)F)c2)C3=O)cn1 |
| < 100 nM | CCOc1cc(-c2cc(C)c3c(n2)C(C)N(c2cnn(CC(F)F)c2)C3=O)cnc1C (stereo unspecified) |
| < 100 nM | COc1cc(-c2ccc3c(n2)CN(c2cnn(C(F)(F)C#N)c2)C3=O)cnc1OC |
| < 100 nM | COc1cc(-c2ccc3c(n2)CN(c2cnn(CC(N)=O)c2)C3=O)cnc1OC |
| < 100 nM | CCn1cc(N2C(=O)c3ccc(-c4cnc(OC)c(OC)c4)nc3[C@H]2C)cn1 |
| < 100 nM | COc1cc(-c2ccc3c(n2)CN(c2cnn(CC(O)C(F)(F)F)c2)C3=O)cnc1OC (stereo unspecified) |
| < 100 nM | COc1cncc(-c2cc(C)c3c(n2)C2(C[C@@H](O)[C@@H](O)C2)N(c2cnn(CC(F)(F)F)c2)C3=O)c1 (stereo partly specified) |
| < 100 nM | C=CCNC(=O)c1cncc(-c2cc(C)c3c(n2)C(C)(C)N(c2cnn(CC(F)(F)F)c2)C3=O)c1 |
| 100 to 490 nM | COc1cc(-c2ccc3c(n2)CN(c2ccc(N(C)CC4CCCO4)nc2)C3=O)cnc1OC (stereo unspecified) |

| Ki | Compound |
| --- | --- |
| < 100 nM | CC[C@@]1(OC)c2nc(-c3cnc(OC)c(OC)c3)cc(C)c2C(=O)N1c1cnn(CC(F)(F)F)c1 |
| 100 to 490 nM | COc1cc(-c2ccc3c(c2)CN(c2cccnc2)C3=O)cnc1OC |
| < 100 nM | COc1cc(-c2cc(C)c3c(n2)C(C)(C)N(c2cnn(CC(F)(F)F)c2)C3=O)cnc1C |
| < 100 nM | COc1cc(-c2cc(C)c3c(n2)[C@](C)(OC)N(c2cnn(CC(F)(F)F)c2)C3=O)cnc1OC |
| < 100 nM | COc1cc(-c2ccc3c(n2)CN(c2ccn(CC#N)n2)C3=O)cnc1OC |
| < 100 nM | COc1cc(-c2ccc3c(n2)[C@H](C)N(c2ccn(CC(F)(F)F)n2)C3=O)cnc1OC |
| < 100 nM | COc1cc(-c2ccc3c(n2)C(OC)N(c2cnn(CC(F)(F)F)c2)C3=O)cnc1OC (stereo unspecified) |
| < 100 nM | Cc1cc(-c2cncc(OC(F)F)c2)nc2c1C(=O)N(c1cn[nH]c1)C2C (stereo unspecified) |
| < 100 nM | CCOc1ncc(-c2cc(C)c3c(n2)C(C)(O)N(c2cnn(CC(F)(F)F)c2)C3=O)cc1OC (stereo unspecified) |
| < 100 nM | CCC1c2nc(-c3cncc(OC(F)F)c3)cc(C)c2C(=O)N1c1cnn(CC(F)(F)F)c1 (stereo unspecified) |
| < 100 nM | COc1cc(-c2cc(C)c3c(n2)CN(c2cnn(CC(F)(F)F)c2)C3=O)cnc1O |
| 100 to 490 nM | COc1cc(-c2ccc3c(c2)CN(c2cnn(CC(C)C)c2)C3=O)cnc1OC |
| < 100 nM | COc1cc(-c2cc(C)c3c(n2)CN(c2cncc(F)c2)C3=O)cnc1OC |
| < 100 nM | COc1cc(-c2ccc3c(n2)[C@H](C)N(c2cccc(C(C)(C)C#N)n2)C3=O)cnc1OC |
| < 100 nM | COc1cc(-c2ccc3c(n2)CN(c2cnn(Cc4cncn4C)c2)C3=O)cnc1OC |
| < 100 nM | COc1cc(-c2ccc3c(n2)C(C)N(c2cccc(C(C)(C)C#N)n2)C3=O)cnc1OC (stereo unspecified) |
| < 100 nM | COc1ccc(-c2cc(C)c3c(n2)CN(c2cnn(C(C)(C)C#N)c2)C3=O)cc1OC |
| < 100 nM | COc1cncc(-c2cc(C)c3c(n2)C(C)(OC)N(c2cnn(CC(F)(F)F)c2)C3=O)c1 (stereo unspecified) |
| < 100 nM | COc1cncc(-c2cc(C)c3c(n2)[C@@]2(CCOC2)N(c2cnn(CC(F)(F)F)c2)C3=O)c1 |
| < 100 nM | COc1ncc(-c2ccc3c(c2)CN(c2cnn(CC#N)c2)C3=O)c(OC)n1 |
| < 100 nM | Cc1cc(-c2cncc(C(=O)NC3COC3)c2)nc2c1C(=O)N(c1cnn(CC(F)(F)F)c1)C2(C)C |
| < 100 nM | COc1cncc(-c2cc(C)c3c(n2)C2(CCCO2)N(c2cnn(CC(F)(F)F)c2)C3=O)c1 (stereo unspecified) |
| < 100 nM | COc1ccc(-c2cc(C)c3c(c2)CN(c2cnn(CC(F)(F)F)c2)C3=O)nc1OC |
| < 100 nM | CCn1cc(N2Cc3nc(-c4cncc(OC)c4)cc(C)c3C2=O)cn1 |

| Ki | Compound |
| --- | --- |
| < 100 nM | CCCOc1cc(-c2cc(C)c3c(n2)C(C)(C)N(c2cnn(CC#N)c2)C3=O)cnc1CC |
| < 100 nM | Cc1cc(-c2cncc(S(C)(=O)=O)c2)nc2c1C(=O)N(c1cnn(CC(F)(F)F)c1)C2C (stereo unspecified) |
| < 100 nM | Cc1cncc(-c2cc(C)c3c(n2)CN(c2cnn(CC#N)c2)C3=O)c1 |
| 100 to 490 nM | COc1cc(-c2cc(C)c3c(n2)CN(c2cnn(C(C)(C)C#N)c2)C3=O)cnc1O |
| < 100 nM | Cc1cc(-c2cncc(OC(F)F)c2)cc2c1C(=O)N(c1cnn(CC(F)(F)F)c1)C2C (stereo unspecified) |
| < 100 nM | CCOc1ncc(-c2cc(C)c3c(n2)C2(CCOCC2)N(c2cnn(CC(F)(F)F)c2)C3=O)cc1OC |
| < 100 nM | Cc1cc(-c2cncc(OCC(F)F)c2)nc2c1C(=O)N(c1cnn(CC(F)(F)F)c1)[C@H]2C |
| < 100 nM | COCCO[C@@H]1c2nc(-c3cnc(OC)c(OC)c3)ccc2C(=O)N1c1cnn(CC(F)(F)F)c1 |
| < 100 nM | CCc1cc(N2Cc3nc(-c4cnc(OC)c(OC)c4)ccc3C2=O)nn1CC |
| < 100 nM | Cc1cc(-c2cncc(OC(F)F)c2)nc2c1C(=O)N(c1cn[nH]c1)[C@H]2C |
| < 100 nM | COc1cc(-c2ccc3c(n2)CN(c2cnn(C4CCOCC4)c2)C3=O)cnc1OC |
| < 100 nM | COc1ncc(-c2cc(C)c3c(n2)CN(c2cnn(C)c2)C3=O)cc1OC(F)F |
| < 100 nM | Cc1cc(-c2cncc(C(=O)NC(C)(C)C)c2)nc2c1C(=O)N(c1cnn(CC(F)(F)F)c1)C2 |
| < 100 nM | CCCOc1cc(-c2cc(C)c3c(n2)CN(c2ccn(C4COC4)n2)C3=O)cnc1OC |
| < 100 nM | Cc1cc(-c2cncc(OC(F)F)c2)nc2c1C(=O)N(c1cnn(C[C@H](C)O)c1)[C@H]2C |
| 100 to 490 nM | COc1cc(-c2ccc3c(c2)CN(c2cccc(C#N)c2)C3=O)cnc1OC |
| 100 to 490 nM | CCn1nc(N2Cc3cc(-c4cnc(OC)c(OC)c4)ccc3C2=O)cc1C |
| 100 to 490 nM | CCC1c2nc(-c3cnc(OC)c(OC)c3)ccc2C(=O)N1c1cc(COC)n(CC)n1 (stereo unspecified) |
| < 100 nM | COc1cc(-c2cc(C)c3c(n2)CN(c2cnn(C)c2)C3=O)cnc1OC |
| < 100 nM | COCCOc1ncc(-c2cc(C)c3c(n2)[C@H](C)N(c2ccn(C)n2)C3=O)cc1OC |
| < 100 nM | COc1ncc(-c2ccc3c(n2)[C@@H](C)N(c2cnn(CC(F)(F)F)c2)C3=O)cc1O |
| < 100 nM | COc1cc(-c2cc(C)c3c(n2)CN(c2ccn([C@@H]4CCOC4)n2)C3=O)cnc1F |
| < 100 nM | COc1cncc(N2Cc3nc(-c4cnc(OC)c(OC)c4)cc(C)c3C2=O)c1 |
| < 100 nM | COc1cc(-c2ccc3c(n2)CN(c2cnn(CC(F)F)c2)C3=O)cnc1OC |

| Ki | Compound |
| --- | --- |
| < 100 nM | COc1cncc(-c2cc(C)c3c(n2)CN(c2ccn(CC4CCCO4)n2)C3=O)c1 (stereo unspecified) |
| 100 to 490 nM | Cc1ncc(-c2ccc3c(n2)CN(c2cnn(CC(F)(F)F)c2)C3=O)cc1OCC(F)F |
| 100 to 490 nM | COc1cc(-c2ccc3c(n2)CN(c2ccc(N4CC[C@@H](F)C4)nc2)C3=O)cnc1OC |
| < 100 nM | Cc1cc(-c2cncc(OCC(F)(F)F)c2)nc2c1C(=O)N(c1cnn(CC(F)(F)F)c1)[C@@H]2C |
| < 100 nM | COc1cc(-c2cc(C)c3c(n2)CN(c2ccc(C(C)C)nc2)C3=O)cnc1OC |
| < 100 nM | COc1cc(-c2ccc3c(n2)C(C)N(c2ccn(C)n2)C3=O)cnc1OC (stereo unspecified) |
| < 100 nM | Cc1cc(-c2cnc(C)c(OCC(F)F)c2)nc2c1C(=O)N(c1cnn(CC(F)F)c1)C2C (stereo unspecified) |
| < 100 nM | CCn1ccc(N2Cc3nc(-c4cncc(OC)c4)cc(C)c3C2=O)n1 |
| < 100 nM | COc1cc(-c2ccc3c(n2)CN(c2ccc(N4CCC(CO)CC4)nc2)C3=O)cnc1OC |
| < 100 nM | CCc1cc(N2Cc3nc(-c4cnc(OC)c(OC)c4)cc(C)c3C2=O)nn1CC(F)(F)F |
| < 100 nM | Cc1cc(-c2cncc(OC(F)F)c2)cc2c1C(=O)N(c1cnn(CC(F)(F)F)c1)C2 |
| 100 to 490 nM | CCOc1cncc(-c2cc(C)c3c(n2)C(C)(C)N(c2cn[nH]c2)C3=O)c1 |
| < 100 nM | COc1cc(-c2cc(C)c3c(n2)C(O)N(c2nc(C)cs2)C3=O)cnc1OC (stereo unspecified) |
| < 100 nM | CCC1(OC)c2nc(-c3cnc(OC)c(OC)c3)cc(C)c2C(=O)N1c1cnn(CC(F)(F)F)c1 (stereo unspecified) |
| < 100 nM | COc1ncc(-c2cc(C)c3c(n2)CN(c2ccn(C4COC4)n2)C3=O)cc1OCC(F)(F)F |
| < 100 nM | CCn1cc(N2Cc3cc(-c4cnc(OC)c(OC)c4)ccc3C2=O)cn1 |
| 100 to 490 nM | COc1cc(-c2ccc3c(c2)CN(c2cncc(C#N)c2)C3=O)cnc1OC |
| < 100 nM | CCn1ncc(N2Cc3cc(-c4cnc(OC)c(OC)c4)ccc3C2=O)n1 |
| < 100 nM | COc1cc(-c2ccc3c(n2)C2(CCOCC2)N(c2cnn(CC(F)(F)F)c2)C3=O)cnc1OC |
| < 100 nM | Cc1cc(-c2cncc(S(C)(=O)=O)c2)nc2c1C(=O)N(c1cnn(CC(F)(F)F)c1)C2 |
| < 100 nM | CCOc1cc(-c2cc(C)c3c(n2)C(C)(C)N(c2cnn(CC(F)(F)F)c2)C3=O)cnc1C |
| < 100 nM | COc1cncc(-c2cc(C)c3c(n2)CN(c2ccn(CC(C)(C)F)n2)C3=O)c1 |
| < 100 nM | CCOc1ncc(-c2cc(C)c3c(n2)CN(c2cn(CC(F)(F)F)cn2)C3=O)cc1OC |
| < 100 nM | COc1csc(-c2cc(C)c3c(n2)CN(c2cnn(CC(F)(F)F)c2)C3=O)c1 |
